Drawing on patent US20240307327A1, “DOSAGE FORMS OF MIRDAMETINIB” (SpringWorks Therapeutics, Inc., priority 2023, published 2024), this text covers D10 for two compounds.

The nature of this data set: Particle size distribution of mirdametinib drug substance lots (laser diffraction). Type of data set: physicochemical. As to conditions: mirdametinib free base. An excerpt:
As used herein, “D50” or “d50”, also known as the median diameter, corresponds to the value under which 50% of the particles has a lower volume diameter. “D90” or “d90” corresponds to the value under which 90% of the particles has a lower volume diameter. The particle size may be measured using wet standard laser diffraction particle sizing techniques known in the art. One example of an instrument to measure the particle size of the dry powders is the Mastersizer 3000, manufactured by Malvern Panalytical Ltd. (Malvern, UK). As particles are often non-spherical, it is difficult and complex to provide dimensional descriptions of these non-spherical particles. As used herein, “volume diameter” refers to diameter of a sphere with equal volume of the non-spherical particle.
Mirdametinib free base (Lots #1, 2, and 3) having the properties in the table below were prepared.

`O=C(NOC[C@H](O)CO)c1ccc(F)c(F)c1Nc1ccc(I)cc1F` [Lot 1, N-((R)-2,3-dihydroxypropoxy)-3,4-difluoro-2-(2-fluoro-4-iodo-phenylamino)benzamide] yielded a D10 of 4.9 μm.

On to `O=C(NOC[C@H](O)CO)c1ccc(F)c(F)c1Nc1ccc(I)cc1F` [Lot 2, N-((R)-2,3-dihydroxypropoxy)-3,4-difluoro-2-(2-fluoro-4-iodo-phenylamino)benzamide], for which the D10 amounted to 7.6 μm.
